Values of other authors, collected in US20230059204A1, “T[…]-DOSING […] OF PHARMACEUTICAL AGENTS” (PIKE THERAPEUTICS, INC., priority 2021, published 2023).

Test system: serotonin receptors in the brain
Conditions: once ingested

## CN(C)CCc1c[nH]c2cccc(OP(=O)(O)O)c12 [psilocybin, [3-(2-dimethylaminoethyl)-1H-indol-4-yl] dihydrogen phosphate]
  duration of mind-altering effects: two to six
